The values that follow come from publication PMC10177692, “Novel topoisomerase II/EGFR dual inhibitors: design, synthesis and docking studies of naphtho[2′,3′:4,5]thiazolo[3,2-a]pyrimidine hybrids as potential anticancer agents with apoptosis inducing activity” (Journal of Enzyme Inhibition and Medicinal Chemistry, 2023).

The test system of one experiment is Bax. Description: Bax level ELISA in MCF-7 cells. The settings on record: for Bax Conc.(pg/ml): MCF-7, at IC50, 24 h, control 83.16 ± 6.2; for Bax FLD: MCF-7, at IC50, fold of control cells. In kind it is cell-based, human. As to the method:
MCF-7 cells were cultured in DMEM supplied with 10% FBS and incubated in 5% CO2 in air at 37 °C. […] Cell lysate was diluted using standard diluent buffer over the range of assay. Bax and Bcl-2 content in the lysate was assessed using human Bax ELISA kit (DRG, USA) and Bcl-2 ELISA Kit (Zymed Laboratories, Invitrogen Immuno-detection, Canada), respectively, according to the manufacturer’s instructions for each kit. The results were expressed as Mean ± SE of three independent experiments.

For another experiment, the target named is T1, topoisomerase IIα (Homo sapiens, UniProt P11388).
T1 construct: it decreases the concentration of topoisomerase iIα in MCF-7 cell line to 1.043 ± 0.10 ng/ml; endogenous in cells; host or cells: MCF-7
Description: Topoisomerase IIα inhibitory activity (ELISA kit). In kind it is cell-based. The settings on record: MCF-7 cell line; for % inhibition of topoisomerase IIα activity: compounds at their IC50, compared to control; for concentration of topoisomerase IIα: compounds at their IC50, control 3.663 ± 0.09 ng/ml. The procedure: Biotin-conjugated antibody was added to each well followed by incubation at 37 °C for 1 h, then the plates were aspirated. Avidin conjugated Horseradish Peroxidase (HRP avidin) solution was added to each well, incubated again at 37 °C for 1 h. TMB substrate was added to the wells and the plate was incubated at 37 °C for 30 min at dark place. The absorbance was read using spectrophotometer at a wavelength of 450 nm.
On the technique in general: An ELISA detects its analyte on a solid surface through an enzyme-linked reagent.

The test system of the next experiment is MCF-7 cells. The experiment is described as follows: Annexin V-FITC/PI staining assay. In kind it is cell-based, human. Also on record: Apoptosis Total / Apoptosis Early / Apoptosis Late / Necrosis: unit not given here. The settings on record: for increase in cell necrosis compared to control / increase of cell population in early apoptotic stage compared to control / increase of late apoptotic cell population compared to control: MCF-7, at IC50; for Apoptosis Late / Apoptosis Early / Necrosis / Apoptosis Total: MCF-7, at IC50, 24 h; for Apoptosis Late: control 0.15; for Apoptosis Early: control 0.38; for Necrosis: control 1.36; for Apoptosis Total: control 1.89. As to the method:
Cells underwent three washing cycles using ice cold PBS, then suspended in PBS. Cell apoptosis was detected by Annexin V-FITC Apoptosis Detection Kit (BioVisionResearch Products, USA). The cells were stained using PI staining solution, Annexin V-FITC and incubated for 15 min at room temperature in a dark place. Cells were investigated by flow cytometry (Ex = 488 nm; Em = 530 nm) using FACS calibre (Becton Dickinson, Heidelberg, Germany)[48].

T1 sequence (P11388 whole entry): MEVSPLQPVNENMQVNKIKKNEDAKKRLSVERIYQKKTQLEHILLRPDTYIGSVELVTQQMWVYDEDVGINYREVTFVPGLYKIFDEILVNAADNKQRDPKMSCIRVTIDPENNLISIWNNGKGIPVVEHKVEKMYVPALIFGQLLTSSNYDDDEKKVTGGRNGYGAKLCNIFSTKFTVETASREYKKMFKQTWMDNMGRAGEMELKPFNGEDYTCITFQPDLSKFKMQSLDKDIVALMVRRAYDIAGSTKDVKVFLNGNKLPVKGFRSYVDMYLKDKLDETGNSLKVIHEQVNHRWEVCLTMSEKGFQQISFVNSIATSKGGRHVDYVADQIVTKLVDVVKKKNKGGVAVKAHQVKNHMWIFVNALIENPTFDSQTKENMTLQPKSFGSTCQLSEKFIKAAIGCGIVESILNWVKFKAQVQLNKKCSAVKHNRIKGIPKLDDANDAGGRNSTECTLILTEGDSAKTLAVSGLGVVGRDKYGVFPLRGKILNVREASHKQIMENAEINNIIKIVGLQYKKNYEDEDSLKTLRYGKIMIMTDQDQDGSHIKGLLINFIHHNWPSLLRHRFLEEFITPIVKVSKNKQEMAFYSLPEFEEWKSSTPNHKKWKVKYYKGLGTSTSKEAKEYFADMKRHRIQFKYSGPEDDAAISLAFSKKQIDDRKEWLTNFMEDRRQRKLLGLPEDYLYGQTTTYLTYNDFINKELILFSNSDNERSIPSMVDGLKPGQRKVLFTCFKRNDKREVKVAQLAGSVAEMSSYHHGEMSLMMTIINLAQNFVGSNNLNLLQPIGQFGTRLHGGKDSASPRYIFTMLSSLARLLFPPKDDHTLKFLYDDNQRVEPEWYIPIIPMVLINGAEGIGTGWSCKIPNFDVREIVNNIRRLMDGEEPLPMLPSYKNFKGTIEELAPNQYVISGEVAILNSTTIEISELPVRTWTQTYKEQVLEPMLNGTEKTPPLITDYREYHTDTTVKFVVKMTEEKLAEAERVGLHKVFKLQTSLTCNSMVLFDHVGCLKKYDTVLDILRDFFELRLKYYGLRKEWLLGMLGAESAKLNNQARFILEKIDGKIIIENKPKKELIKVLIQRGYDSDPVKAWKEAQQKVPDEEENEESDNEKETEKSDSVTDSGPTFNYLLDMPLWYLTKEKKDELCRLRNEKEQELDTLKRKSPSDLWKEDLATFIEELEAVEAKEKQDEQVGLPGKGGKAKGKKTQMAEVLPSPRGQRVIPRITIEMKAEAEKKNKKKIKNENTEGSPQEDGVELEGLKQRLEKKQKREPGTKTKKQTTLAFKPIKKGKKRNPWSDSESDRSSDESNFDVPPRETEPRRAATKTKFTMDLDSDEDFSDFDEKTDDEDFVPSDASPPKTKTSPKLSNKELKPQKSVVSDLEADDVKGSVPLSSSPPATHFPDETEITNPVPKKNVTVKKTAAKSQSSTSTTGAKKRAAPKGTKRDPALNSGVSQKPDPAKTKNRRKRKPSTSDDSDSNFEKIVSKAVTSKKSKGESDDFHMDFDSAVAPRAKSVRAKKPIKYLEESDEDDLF

Consider `N#Cc1c(-c2ccc([N+](=O)[O-])cc2)nc2sc3c(n2c1=O)C(=O)c1ccccc1C3=O` [Compound 6i, 2–(4-Nitrophenyl)-4,6,11-trioxo-6,11-dihydro-4H-naphtho[’',’':4,5]thiazolo-[3,2-a]pyrimidine-3-carbonitrile], for which, in the experiment with Bax, the “Bax Conc.(pg/ml)” value was found to be 581.5 ± 8.7 pg/mL and the “Bax FLD” value was 6.99 fold. At topoisomerase IIα, the “% inhibition of topoisomerase IIα activity” value came out at 71.50% and the “concentration of topoisomerase IIα” value was 1.043 ± 0.10 ng/mL. Also, in the experiment with MCF-7 cells, the “increase in cell necrosis compared to control” value turned out to be 10.52 folds, the “increase of cell population in early apoptotic stage compared to control” value was 9.57 folds, the “increase of late apoptotic cell population compared to control” value is listed as 182.06 folds and the “Apoptosis Late” value amounted to 27.31. For the same compound, in the experiment on MCF-7 cells, the “Apoptosis Early” value stood at 3.64, the Necrosis amounted to 14.31 and the “Apoptosis Total” value is given as 45.26.

In the case of `COc1ccc(-c2nc3sc4c(n3c(=O)c2C#N)C(=O)c2ccccc2C4=O)cc1` [Compound 6a, 2–(4-Methoxyphenyl)-4,6,11-trioxo-6,11-dihydro-4H-naphtho[2′,3′:4,5]-thiazolo[3,2-a]pyrimidine-3-carbonitrile], in the experiment on Bax, the “Bax Conc.(pg/ml)” value came to 436.1 ± 5.1 pg/mL and the “Bax FLD” value stood at 5.24 fold. For the same compound, at topoisomerase IIα, the “% inhibition of topoisomerase IIα activity” value was found to be 35.81% and the “concentration of topoisomerase IIα” value is 2.351 ± 0.21 ng/mL. Moreover, in the experiment on MCF-7 cells, the “increase in cell necrosis compared to control” value came to 6.78 folds, the “increase of cell population in early apoptotic stage compared to control” value was 13.84 folds, the “increase of late apoptotic cell population compared to control” value stood at 126.13 folds and the “Apoptosis Late” value came out at 18.92. In the experiment on MCF-7 cells, the “Apoptosis Early” value is reported as 5.26, the Necrosis was determined as 9.23 and the “Apoptosis Total” value came to 33.41.
